Measured values: publication PMC5321741, “Arylmethylamino steroids as antiparasitic agents” (Nature Communications, 2017)
Where two headings read alike, the source gives them in different places.

Assays:
[1] = hepatic microsome stability; format: in vitro ADME; conditions: for remaining at 1 h: liver microsomes, read-out: Hepatic Microsome Stability % remaining after 1 h
Experimental: Pharmacokinetic data were obtained for compound 1o at the Sanford-Burnham Medical Research Institute according to established procedures. Compound solubility in an aqueous solution was measured using an automated kinetic solubility method. The concentration of the compound in a saturated pH-buffered aqueous solution was determined via UV absorbance (250–498 nm) and compared with the spectra of a precipitation-free reference solution. The plasma stability of the compound was determined at a single concentration using species-specific plasma. The percentage of parent compound remaining after 3 h was determined via LC-MS/MS. The percentage of compound 1o bound to plasma proteins was determined through rapid equilibrium dialysis and quantified via LC-MS/MS. Metabolic stability of the compound was determined at a single concentration using species-specific liver microsomes that contained cytochrome P450s, flavin-monooxygenases, carboxyl-esterases, epoxide hydrolases, and other drug-metabolizing enzymes. The quantification was carried out via LC-MS/MS. Membrane permeability of compound 1o was measured using an in vitro model for the passive transport from the gastrointestinal tract into the blood system. A double-sink parallel artificial membrane permeability assay PAMPA, in a 96-well format was employed.

[2] = tested on: hGrx1-roGFP2 in P. falciparum 3D7; experiment: cytosolic glutathione redox sensor in parasites; format: cell-based, Plasmodium falciparum; conditions: for oxidizing effect, change of 405/488 nm fluorescence ratio: 4 h
Experimental: To further study the mechanism of action of the steroid compounds and evaluate the potential involvement of redox stress, compound 1o was tested in cell culture on the chloroquine-sensitive P. falciparum 3D7 strain expressing the cytosolic glutathione redox sensor hGrx1-roGFP2 (Supplementary Note 2). […]
signals at 405/475 nm were calculated and plotted against time and/or concentration of compound 1o or redox active compounds. Data from three independent experiments were […]
100 µM for 4 h and 24 h incubations. Transfection of the Pf3D7 strain with the redox sensor was carried out, and the parasites were cultured as described under constant drug pressure with 5 nM WR99210 (Jacobus Pharmaceuticals, New Jersey, USA).45,46 P. falciparum trophozoites were enriched via magnet separation.47 Parasitemia was counted by using Giemsa-stained blood smears. The IC50 of compound 1o on P. falciparum 3D7 asexual blood stages was verified to be about 5 nM in an additional 72 h [3H] incorporation assay45 directly before the experiment. The effect of compound 1o on P. falciparum was investigated in 4 h and 24 h incubations. For 4 h experiments, trophozoite stage parasites (26-30 h post invasion) of 3D7[hGrx1-roGFP2] (6-8% parasitemia) were magnetically enriched (Miltenyi Biotec, Germany), counted by using the improved Neubauer hemocytometer (Brand GmbH, Germany), and returned to cell culture (at 0.5 x 10^6 trophozoites/µl) for at least 1 h to recover.
1.0 x 10^6 cells in 100 µl cell culture medium were placed into LoBind tubes (Eppendorf) for 4 h incubation experiments. The parasites were treated with compound 1o at 50 x, and 100 x IC and with mefloquine (MQ) as a standard antimalarial drug at 1 µM (IC = 8 nM)45 for 4 h […]
for 15 min at 37 °C. For 24 h experiments, a 5 ml culture (6-8% parasitemia) of ring stage parasites (6-10 h post invasion) was treated with compound 1o at 4 x, 10 x, 20 x IC50 and with 100 nM MQ. Prior to enrichment, cysteines were blocked with 2 mM NEM. For 4 h and 24 h experiments, cells were washed after incubation with pre-warmed Ringer’s solution […]
Hepes, 1 mM NaH2PO4, pH 7.4) and were seeded onto poly-L-lysine-coated µ-slides VI (Ibidi, Martinsried, Germany). A Leica confocal system TCS SP5 inverted microscope equipped with the objective HCX PL APO 63.0x1.30 GLYC 37 °C UV connected to a 37 °C temperature chamber was used. The argon laser power was set to 20%; scanning was performed at 400 Hz frequency and at a 512 × 512 pixel resolution. The smart gain and […]
smart offset were 950 V and -0.9%, respectively. With a sequential scan, we excited the sensor at 405 nm and at 488 nm and detected emissions at 500-550 nm. Laser intensity for both lines was adjusted to match the full dynamic range of the probe to the dynamic range of the detector (405 nm: 12%, 488 nm: 4%). Autofluorescence images were simultaneously taken at ex 405 nm / em 430-450 nm and individually defined together with the background for every image, but no fluorescence signal could be detected. All experiments included non- […]
and 10 mM DTT (2 min incubation), respectively, prior to blocking with NEM. Only parasites showing fluorescent signals at both 405 and 488 nm excitation and an intact host cell were chosen for analysis. Each experiment was carried out three times. At least 10 parasites were analyzed, resulting in at least 30 experimental values per incubation. The Leica LAS AF Lite software for fluorescence analysis was used. The 405/488 nm ratio was calculated. The obtained ratio values were normalized to the control ratio value, which was set to 100. The graphs were plotted using the GraphPad Prism 5 software (San Diego, CA, USA). One way-ANOVA test with 95% confidence intervals with the Dunnett’s Multiple Comparison Test was applied for statistical analysis of significance (*, p < 0.05; **, p < 0.01; ***, p < 0.001). […]
with 1 µM MQ. 24 h incubation (Supplementary Figure 8 panel B) with compound 1o resulted in a higher increase of the fluorescence ratio in a concentration-dependent manner. […]

[3] = acute toxicity in vivo model; parameters: species or system mice; conditions: accumulative dose 100 mg kg−1 (5, 15, 30, 50 mg kg−1 at 2 h intervals), p.o. and i.p.
Experimental: The compound was applied at an accumulative dose of 100 mg kg^−1 (per os (p.o.). as well as intraperitoneally (i.p.)). The first application was 5 mg kg^−1, 2 h later 15 mg kg^−1, 2 h later 30 mg kg^−1 and again 2 h later 50 mg kg^−1. […] Moreover, we performed pharmacokinetics studies in mice, dosing i.v., i.p. and p.o. (Supplementary Table 5). […] In contrast, high exposure and sustained levels of ∼2 μM were obtained after i.p. dosing at 100 mg kg^−1.
In addition, cytotoxicity tests with compound 1o were carried out on immortalized human hepatocytes, Fa2N-4 cells, resulting in an LC50>50 μM. The best compound 1o has furthermore been tested in an acute toxicity in vivo model at the Swiss Tropical Institute, Basel.

P. falciparum NF54 = experiment: IC50 speed assay; format: cell-based, Plasmodium falciparum; conditions: for IC50: Plasmodium falciparum, mean±s.d., three biological replicates
Experimental: To assess the rapidity of growth inhibition induced by the steroid compounds, the so-called IC50 speed assay[16] was conducted for compound 1o on P. falciparum NF54 (Fig. 2a,b).

## COc1ccc2c(c1)CCC1C2CC[C@@]2(C)C1CC[C@H]2NCc1cc2ccccc2cc1O (some centres unmarked) [1o]
[1]; Human
  Hepatic Microsome Stability % remaining after 1 h: ~38%
[1]; Mouse
  Hepatic Microsome Stability % remaining after 1 h: ~38%
[1]; human
  remaining at 1 h: 38.5%
[1]; mouse
  remaining at 1 h: 38.5%
[2]; 20 nM (4 x IC50), 24 h
  change of 405/488 nm fluorescence ratio: 1.8 fold
[2]; 100 nM, 24 h
  change of 405/488 nm fluorescence ratio: 2.4 fold
[2]; 250 nM (50 x IC50)
  oxidizing effect, change of 405/488 nm fluorescence ratio: approximately 1.5 fold
[2]; 500 nM (100 x IC50)
  oxidizing effect, change of 405/488 nm fluorescence ratio: approximately 1.5 fold
[2]; 20, 50 and 100 nM, 24 h, not significant
  redox ratio of the probe: dose-dependent increase of the redox ratio of the probe
[3]
  acute toxicity symptoms: No acute toxicity symptoms were observed
P. falciparum NF54
  speed of action (IC50 shift across 24, 48, 72 h): no significant IC50 shifts
P. falciparum NF54; NF54, read-out: IC50 24 h, 24 h compound incubation
  IC50: 2.9 ± 0.2 nM
P. falciparum NF54; NF54, 48 h compound incubation, read-out: IC50 48 h
  IC50: 3.4 ± 0.2 nM
P. falciparum NF54; NF54, 72 h compound incubation, read-out: IC50 72 h
  IC50: 2.7 ± 0.4 nM
